# Test system: HT-29 cells
# Assay: MTT cell viability assay, HT-29
# Type: cell-based
# Details: Homo sapiens, 72 h, MTT assay, 3 d treatment, serial dilutions
# Experimental: MTT assay was conducted for HT-29 cells after 3 d treatment with indicated compounds with serial dilutions.
# MTT assay was conducted for HT-29 (A) and SK-MEL-28 (B) cells after 3 d treatment with DMSO or indicated compounds with serial dilutions. Clonogenic assay was performed in HT-29 (C) and SK-MEL-28 (D) cells for 14 d treatment with DMSO or indicated compounds with 10, 30 and 100 nM, in duplicate, respectively. Cells were then stained by crystal violet.
# Cells (2000 cells per well) were seeded into 96-well microplates. After 20 h, cells were treated with 0.1% DMSO or indicated serial dilutions of compounds in duplicate or triplicate for 3 days. Cell viability was tested using MTT (M6494, Thermo Fisher Scientific) or WST-8 reagent (CK04, Dojindo). Briefly, 12 mM MTT was prepared in PBS or WST-8 reagent was warmed up to room temperature. 20 μL MTT or CCK-8 was then added to each well and the plates were kept in incubator at 37° C. for 3 h in the dark. For the WST-8 assay, signal was obtained after the incubation. For the MTT assay, cell medium was replaced with 200 μL of DMSO after the incubation, and then cell plates were kept at 37° C. for another 30 min. Absorbance signals for MTT and WST-8 were read at 540 nm and 450 nm respectively, with 690 nm as reference performed with Infinite F PLEX plate reader (TECAN, Morrisville, NC, USA). GI50 values were analyzed using GraphPad Prism 8 from the data of at least three independent experiments.
# HT-29 or SK-MEL-28 cells (300 cells per well) were seeded in 12-well plates. After 20 h, cells were treated with DMSO or indicated concentrations of compounds in duplicate for two weeks. Medium containing indicated compounds was changed every 3 days. Cells were then fixed and stained with the solution containing 6% (v/v) glutaraldehyde (G5882, Sigma-Aldrich) and 0.5% (w/v) crystal violet for 1 h. To remove the background color, the plates with stained cells were immersed in running water until clear colonies were observed. The plates were dried at RT. The staining images were obtained with Epson Perfection V600 Photo.
row,Compound,GI50 [µM]
1,"Cc1ncsc1-c1ccc(CNC(=O)[C@@H]2C[C@@H](O)CN2C(=O)[C@@H](NC(=O)CCCNCCCONC(=O)c2ccc(F)c(F)c2Nc2ccc(I)cc2F)C(C)(C)C)cc1 [CPD-008, (2S,4R)-1-((S)-13-(tert-Butyl)-1-(3,4-difluoro-2-((2-fluoro-4-iodophenyl)amino)phenyl)-1,11-dioxo-3-oxa-2,7,12-triazatetradecan-14-oyl)-4-hydroxy-N-(4-(4-methylthiazol-5-yl)benzyl)pyrrolidine-2-carboxamide]",11 ± 0.9
2,"Cc1ncsc1-c1ccc(CNC(=O)[C@@H]2C[C@@H](O)CN2C(=O)[C@@H](NC(=O)CNCCCONC(=O)c2ccc(F)c(F)c2Nc2ccc(I)cc2F)C(C)(C)C)cc1 [CPD-005, (2S,4R)-1-((S)-11-(tert-Butyl)-1-(3,4-difluoro-2-((2-fluoro-4-iodophenyl)amino)phenyl)-1,9-dioxo-3-oxa-2,7,10-triazadodecan-12-oyl)-4-hydroxy-N-(4-(4-methylthiazol-5-yl)benzyl)pyrrolidine-2-carboxamide]",1.8 ± 0.4
3,"O=C1CCC(N2C(=O)c3cccc(NCCCNCCCONC(=O)c4ccc(F)c(F)c4Nc4ccc(I)cc4F)c3C2=O)C(=O)N1 (stereo not drawn) [CPD-025, N-(3-((3-((2-(2,6-dioxopiperidin-3-yl)-1,3-dioxoisoindolin-4-yl)amino)propyl)amino)propoxy)-3,4-difluoro-2-((2-fluoro-4-iodophenyl)amino)benzamide]",1.1 ± 0.07
4,"Cc1ncsc1-c1ccc(CNC(=O)[C@@H]2C[C@@H](O)CN2C(=O)[C@@H](NC(=O)CCCCCCCCCNCCCONC(=O)c2ccc(F)c(F)c2Nc2ccc(I)cc2F)C(C)(C)C)cc1 [CPD-013, (2S,4R)-1-((S)-19-(tert-butyl)-1-(3,4-difluoro-2-((2-fluoro-4-iodophenyl)amino)phenyl)-1,17-dioxo-3-oxa-2,7,18-triazaicosan-20-oyl)-4-hydroxy-N-(4-(4-methylthiazol-5-yl)benzyl)pyrrolidine-2-carboxamide]",0.5 ± 0.03
5,"Cc1ncsc1-c1ccc(CNC(=O)[C@@H]2C[C@@H](O)CN2C(=O)[C@@H](NC(=O)CCCCCCCNCCCONC(=O)c2ccc(F)c(F)c2Nc2ccc(I)cc2F)C(C)(C)C)cc1 [CPD-011, (2S,4R)-1-((S)-17-(tert-butyl)-1-(3,4-difluoro-2-((2-fluoro-4-iodophenyl)amino)phenyl)-1,15-dioxo-3-oxa-2,7,16-triazaoctadecan-18-oyl)-4-hydroxy-N-(4-(4-methylthiazol-5-yl)benzyl)pyrrolidine-2-carboxamide]",0.5 ± 0.2
6,"Cc1ncsc1-c1ccc(CNC(=O)[C@@H]2C[C@@H](O)CN2C(=O)[C@@H](NC(=O)CCOCCNCCCONC(=O)c2ccc(F)c(F)c2Nc2ccc(I)cc2F)C(C)(C)C)cc1 [CPD-003, (2S,4R)-1-((S)-15-(tert-Butyl)-1-(3,4-difluoro-2-((2-fluoro-4-iodophenyl)amino)phenyl)-1,13-dioxo-3,10-dioxa-2,7,14-triazahexadecan-16-oyl)-4-hydroxy-N-(4-(4-methylthiazol-5-yl)benzyl)pyrrolidine-2-carboxamide]",4.8 ± 0.7
7,"Cc1ncsc1-c1ccc(CNC(=O)[C@@H]2C[C@@H](O)CN2C(=O)[C@@H](NC(=O)CCOCCOCCOCCOCCNCCCONC(=O)c2ccc(F)c(F)c2Nc2ccc(I)cc2F)C(C)(C)C)cc1 [CPD-017, (2S,4R)-1-((S)-24-(tert-butyl)-1-(3,4-difluoro-2-((2-fluoro-4-iodophenyl)amino)phenyl)-1,22-dioxo-3,10,13,16,19-pentaoxa-2,7,23-triazapentacosan-25-oyl)-4-hydroxy-N-(4-(4-methylthiazol-5-yl)benzyl)pyrrolidine-2-carboxamide]",1.7 ± 0.1
8,"Cc1ncsc1-c1ccc(CNC(=O)[C@@H]2C[C@@H](O)CN2C(=O)[C@@H](NC(=O)COCCOCCNCCCONC(=O)c2ccc(F)c(F)c2Nc2ccc(I)cc2F)C(C)(C)C)cc1 [CPD-012, (2S,4R)-1-((S)-17-(tert-butyl)-1-(3,4-difluoro-2-((2-fluoro-4-iodophenyl)amino)phenyl)-1,15-dioxo-3,10,13-trioxa-2,7,16-triazaoctadecan-18-oyl)-4-hydroxy-N-(4-(4-methylthiazol-5-yl)benzyl)pyrrolidine-2-carboxamide]",1.6 ± 0.3
9,"O=C1CCC(N2C(=O)c3ccc(NCCOCCOCCOCCNCCCONC(=O)c4ccc(F)c(F)c4Nc4ccc(I)cc4F)cc3C2=O)C(=O)N1 (stereo not drawn) [CPD-049, N-((1-((2-(2,6-dioxopiperidin-3-yl)-1,3-dioxoisoindolin-5-yl)amino)-3,6,9-trioxa-12-azapentadecan-15-yl)oxy)-3,4-difluoro-2-((2-fluoro-4-iodophenyl)amino)benzamide]",1.5 ± 0.5
10,"Cc1ncsc1-c1ccc(CNC(=O)[C@@H]2C[C@@H](O)CN2C(=O)[C@@H](NC(=O)CCOCCOCCOCCNCCCONC(=O)c2ccc(F)c(F)c2Nc2ccc(I)cc2F)C(C)(C)C)cc1 [CPD-016, (2S,4R)-1-((S)-21-(tert-butyl)-1-(3,4-difluoro-2-((2-fluoro-4-iodophenyl)amino)phenyl)-1,19-dioxo-3,10,13,16-tetraoxa-2,7,20-triazadocosan-22-oyl)-4-hydroxy-N-(4-(4-methylthiazol-5-yl)benzyl)pyrrolidine-2-carboxamide]",3.3 ± 0.6
11,"O=C1CCC(N2C(=O)c3cccc(NCCOCCOCCOCCOCCNCCCONC(=O)c4ccc(F)c(F)c4Nc4ccc(I)cc4F)c3C2=O)C(=O)N1 (stereo not drawn) [CPD-022, N-((1-((2-(2,6-dioxopiperidin-3-yl)-1,3-dioxoisoindolin-4-yl)amino)-3,6,9,12-tetraoxa-15-azaoctadecan-18-yl)oxy)-3,4-difluoro-2-((2-fluoro-4-iodophenyl)amino)benzamide]",0.6 ± 0.09
12,"Cc1ncsc1-c1ccc([C@H](C)NC(=O)[C@@H]2C[C@@H](O)CN2C(=O)[C@@H](NC(=O)CCCCCCCCCNCCCONC(=O)c2ccc(F)c(F)c2Nc2ccc(I)cc2F)C(C)(C)C)cc1 [CPD-036, (2S,4R)-1-((S)-19-(tert-butyl)-1-(3,4-difluoro-2-((2-fluoro-4-iodophenyl)amino)phenyl)-1,17-dioxo-3-oxa-2,7,18-triazaicosan-20-oyl)-4-hydroxy-N—((S)-1-(4-(4-methylthiazol-5-yl)phenyl)ethyl)pyrrolidine-2-carboxamide]",0.24 ± 0.055
13,"Cc1ncsc1-c1ccc(CNC(=O)[C@@H]2C[C@@H](O)CN2C(=O)[C@@H](NC(=O)CCCCCCCCNCCCONC(=O)c2ccc(F)c(F)c2Nc2ccc(I)cc2F)C(C)(C)C)cc1 [CPD-010, (2S,4R)-1-((S)-18-(tert-butyl)-1-(3,4-difluoro-2-((2-fluoro-4-iodophenyl)amino)phenyl)-1,16-dioxo-3-oxa-2,7,17-triazanonadecan-19-oyl)-4-hydroxy-N-(4-(4-methylthiazol-5-yl)benzyl)pyrrolidine-2-carboxamide]",0.6 ± 0.1
14,"Cc1ncsc1-c1ccc([C@H](C)NC(=O)[C@@H]2C[C@@H](O)CN2C(=O)[C@@H](NC(=O)CCCCCCCCCCCNCCCONC(=O)c2ccc(F)c(F)c2Nc2ccc(I)cc2F)C(C)(C)C)cc1 [CPD-033, (2S,4R)-1-((S)-21-(tert-butyl)-1-(3,4-difluoro-2-((2-fluoro-4-iodophenyl)amino)phenyl)-1,19-dioxo-3-oxa-2,7,20-triazadocosan-22-oyl)-4-hydroxy-N—((S)-1-(4-(4-methylthiazol-5-yl)phenyl)ethyl)pyrrolidine-2-carboxamide]",0.099 ± 0.008
15,"O=C1CCC(N2C(=O)c3ccc(NCCCCNCCCONC(=O)c4ccc(F)c(F)c4Nc4ccc(I)cc4F)cc3C2=O)C(=O)N1 (stereo not drawn) [CPD-042, N-(3-((4-((2-(2,6-dioxopiperidin-3-yl)-1,3-dioxoisoindolin-5-yl)amino)butyl)amino)propoxy)-3,4-difluoro-2-((2-fluoro-4-iodophenyl)amino)benzamide]",1 ± 0.4
16,"O=C1CCC(N2C(=O)c3ccc(NCCCCCCNCCCONC(=O)c4ccc(F)c(F)c4Nc4ccc(I)cc4F)cc3C2=O)C(=O)N1 (stereo not drawn) [CPD-044, N-(3-((6-((2-(2,6-dioxopiperidin-3-yl)-1,3-dioxoisoindolin-5-yl)amino)hexyl)amino)propoxy)-3,4-difluoro-2-((2-fluoro-4-iodophenyl)amino)benzamide]",1.1 ± 0.5
17,"O=C1CCC(N2C(=O)c3cccc(NCCCCCCNCCCONC(=O)c4ccc(F)c(F)c4Nc4ccc(I)cc4F)c3C2=O)C(=O)N1 (stereo not drawn) [CPD-028, N-(3-((6-((2-(2,6-dioxopiperidin-3-yl)-1,3-dioxoisoindolin-4-yl)amino)hexyl)amino)propoxy)-3,4-difluoro-2-((2-fluoro-4-iodophenyl)amino)benzamide]",3.8 ± 1.7
18,"Cc1ncsc1-c1ccc([C@H](C)NC(=O)[C@@H]2C[C@@H](O)CN2C(=O)[C@@H](NC(=O)CCCCCCCCCCNCCCCONC(=O)c2ccc(F)c(F)c2Nc2ccc(I)cc2F)C(C)(C)C)cc1 [CPD-039, (2S,4R)-1-((S)-21-(tert-butyl)-1-(3,4-difluoro-2-((2-fluoro-4-iodophenyl)amino)phenyl)-1,19-dioxo-3-oxa-2,8,20-triazadocosan-22-oyl)-4-hydroxy-N—((S)-1-(4-(4-methylthiazol-5-yl)phenyl)ethyl)pyrrolidine-2-carboxamide]",0.043 ± 0.001
19,"O=C1CCC(N2C(=O)c3ccc(NCCOCCNCCCONC(=O)c4ccc(F)c(F)c4Nc4ccc(I)cc4F)cc3C2=O)C(=O)N1 (stereo not drawn) [CPD-047, N-(3-((2-(2-((2-(2,6-dioxopiperidin-3-yl)-1,3-dioxoisoindolin-5-yl)amino)ethoxy)ethyl)amino)propoxy)-3,4-difluoro-2-((2-fluoro-4-iodophenyl)amino)benzamide]",1.4 ± 0.7
20,"O=C1CCC(N2C(=O)c3cccc(NCCOCCOCCNCCCONC(=O)c4ccc(F)c(F)c4Nc4ccc(I)cc4F)c3C2=O)C(=O)N1 (stereo not drawn) [CPD-020, N-(3-((2-(2-(2-((2-(2,6-dioxopiperidin-3-yl)-1,3-dioxoisoindolin-4-yl)amino)ethoxy)ethoxy)ethyl)amino)propoxy)-3,4-difluoro-2-((2-fluoro-4-iodophenyl)amino)benzamide]",1.3 ± 0.5
21,"Cc1ncsc1-c1ccc(CNC(=O)[C@@H]2C[C@@H](O)CN2C(=O)[C@@H](NC(=O)CCOCCOCCNCCCONC(=O)c2ccc(F)c(F)c2Nc2ccc(I)cc2F)C(C)(C)C)cc1 [CPD-004, (2S,4R)-1-((S)-18-(tert-Butyl)-1-(3,4-difluoro-2-((2-fluoro-4-iodophenyl)amino)phenyl)-1,16-dioxo-3,10,13-trioxa-2,7,17-triazanonadecan-19-oyl)-4-hydroxy-N-(4-(4-methylthiazol-5-yl)benzyl)pyrrolidine-2-carboxamide]",1.6 ± 0.3
